How the values were obtained:
[1] = test system: barnyard grass; experiment: Herbicidal test for paddy field; assay type: in vivo, Eschinochloa crusgalli; settings: 500 g/ha, dropwise addition to paddy water at 1.5 leaf stage of barnyard grass; glass house 25° C., 3 weeks; rank 0-5 vs non-treated district
Experimental: (§1) Wagner pots, each having an area of 1/5000 are, were packed with Ube soil (alluvial soil) and planted with seeds or tubers of young rice plant, barnyard grass, bulrush, Cyperus serotinus Rottb., arrowhead and monochoria. Then, the pots were filled with water to a depth of 3 cm.
(§2) Each wettable powder of the desired Compounds (I) shown in Tables 1 to 21, 24, 25, 28 and 29 prepared in accordance with Example 2 was diluted with water containing a surfactant (0.05%) and subjected to dropwise addition treatment by using pipet so that an effective concentration of the compound (I) in each herbicide became 500 g/ha at 1.5 leaf stage of barnyard grass.
(§3) These plants were controlled in a glass house at an average temperature of 25° C. for 3 weeks, and then herbicidal effects thereof were investigated.
(§4) The herbicidal effects are evaluated according to the following 6 ranks as compared with non-treated district. (0: normal development, 1: Less damaged, 2: Slightly damaged, 3: Moderately damaged, 4: Severely damaged, 5: All killed). Incidentally, “-” in the column means not investigated.

[2] = test system: bulrush; experiment: Herbicidal test for paddy field; assay type: in vivo, Scrips juncoides; settings: 500 g/ha, dropwise addition to paddy water at 1.5 leaf stage of barnyard grass; glass house 25° C., 3 weeks; rank 0-5 vs non-treated district
Experimental: as §1, §2, §3, §4

[3] = test system: Cyperus serotinus Rottb.; experiment: Herbicidal test for paddy field; assay type: in vivo; settings: 500 g/ha, dropwise addition to paddy water at 1.5 leaf stage of barnyard grass; glass house 25° C., 3 weeks; rank 0-5 vs non-treated district
Experimental: as §1, §2, §3, §4

[4] = test system: arrowhead; experiment: Herbicidal test for paddy field; assay type: in vivo, Sagittaria pygmaea; settings: 500 g/ha, dropwise addition to paddy water at 1.5 leaf stage of barnyard grass; glass house 25° C., 3 weeks; rank 0-5 vs non-treated district
Experimental: as §1, §2, §3, §4

[5] = test system: corn; experiment: Foliar spread test for upland field; assay type: in vivo; parameters: key: 0 = normal development, 5 = all killed (6 ranks vs. untreated); settings: foliar spray, 500 ppm, 3 weeks, glass house 25° C.
How it was run: (§5)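 Plants grown about 2 weeks at 25 °C in volcanic ash soil were sprayed with wettable powder diluted to 500 ppm in water with 0.5% surfactant. After 3 weeks at 25 °C, damage was scored 0 (normal) to 5 (all killed) against untreated plants.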

[6] = test system: cotton; experiment: Foliar spread test for upland field; assay type: in vivo; parameters: key: 0 = normal development, 5 = all killed (6 ranks vs. untreated); settings: foliar spray, 500 ppm, 3 weeks, glass house 25° C.
How it was run: as §5

[7] = test system: solgum; experiment: Foliar spread test for upland field; assay type: in vivo; parameters: key: 0 = normal development, 5 = all killed (6 ranks vs. untreated); settings: foliar spray, 500 ppm, 3 weeks, glass house 25° C.
How it was run: as §5

[8] = test system: soybean; experiment: Foliar spread test for upland field; assay type: in vivo; parameters: key: 0 = normal development, 5 = all killed (6 ranks vs. untreated); settings: foliar spray, 500 ppm, 3 weeks, glass house 25° C.
How it was run: as §5

[9] = test system: sugar beat; experiment: Foliar spread test for upland field; assay type: in vivo; parameters: key: 0 = normal development, 5 = all killed (6 ranks vs. untreated); settings: foliar spray, 500 ppm, 3 weeks, glass house 25° C.
How it was run: as §5

[10] = test system: wheat; experiment: Foliar spread test for upland field; assay type: in vivo; parameters: key: 0 = normal development, 5 = all killed (6 ranks vs. untreated); settings: foliar spray, 500 ppm, 3 weeks, glass house 25° C.
How it was run: as §5

[11] = test system: Large crabgrass; experiment: Foliar spread test for upland field; assay type: in vivo, Digitaria adscendens; parameters: key: 0 = normal development, 5 = all killed (6 ranks vs. untreated); settings: foliar spray, 500 ppm, 3 weeks, glass house 25° C.
How it was run: as §5

[12] = test system: barnyardgrjass; experiment: Foliar spread test for upland field; assay type: in vivo, Eschinochloa crusgalli; parameters: key: 0 = normal development, 5 = all killed (6 ranks vs. untreated); settings: foliar spray, 500 ppm, 3 weeks, glass house 25° C.
How it was run: as §5

[13] = test system: green foxtail; experiment: Foliar spread test for upland field; assay type: in vivo, Setaria viridis; parameters: key: 0 = normal development, 5 = all killed (6 ranks vs. untreated); settings: foliar spray, 500 ppm, 3 weeks, glass house 25° C.
How it was run: as §5

[14] = test system: blackgrass; experiment: Foliar spread test for upland field; assay type: in vivo, Alopecurus aegualis; parameters: key: 0 = normal development, 5 = all killed (6 ranks vs. untreated); settings: foliar spray, 500 ppm, 3 weeks, glass house 25° C.
How it was run: as §5

[15] = test system: annual bluegrass; experiment: Foliar spread test for upland field; assay type: in vivo, Poa annua; parameters: key: 0 = normal development, 5 = all killed (6 ranks vs. untreated); settings: foliar spray, 500 ppm, 3 weeks, glass house 25° C.
How it was run: as §5

[16] = test system: common lambsquarters; experiment: Foliar spread test for upland field; assay type: in vivo, Chenopodium album; parameters: key: 0 = normal development, 5 = all killed (6 ranks vs. untreated); settings: foliar spray, 500 ppm, 3 weeks, glass house 25° C.
How it was run: as §5

[17] = test system: livid amaranth; experiment: Foliar spread test for upland field; assay type: in vivo, Amaranthus lividus; parameters: key: 0 = normal development, 5 = all killed (6 ranks vs. untreated); settings: foliar spray, 500 ppm, 3 weeks, glass house 25° C.
How it was run: as §5

[18] = test system: velvetleaf; experiment: Foliar spread test for upland field; assay type: in vivo, Abutilon theophrasti; parameters: key: 0 = normal development, 5 = all killed (6 ranks vs. untreated); settings: foliar spray, 500 ppm, 3 weeks, glass house 25° C.
How it was run: as §5

[19] = test system: morning glory; experiment: Foliar spread test for upland field; assay type: in vivo, Ipomoea spps.; parameters: key: 0 = normal development, 5 = all killed (6 ranks vs. untreated); settings: foliar spray, 500 ppm, 3 weeks, glass house 25° C.
How it was run: as §5

[20] = test system: Cassia obtusifolia; experiment: Foliar spread test for upland field; assay type: in vivo; parameters: key: 0 = normal development, 5 = all killed; settings: foliar spray, 500 ppm, 3 weeks, glass house 25° C.
Experimental: as §4
(§6) Wagner pots, each having an area of 1/5000 are, were packed with volcanic ash soil and then each seed of corn, soybean, cotton, wheat, solgum, sugar beat, Large crabgrass, barnyardgrjass, green foxtail, blackgrass, annual bluegrass, common lambsquarters, livid amaranth, velvetleaf, morning glory, Xanthium pensylvanicum and Cassia obtusifolia was planted, covered with soil and grown in a glass house at an average temperature of 25° C. for about 2 weeks.
(§7) Each wettable powder of the desired compounds (I) shown in Tables 1 to 21, 24, 25, 28 and 29 prepared in accordance with Example 2 was diluted to 500 ppm with water containing a surfactant (0.5%) and then uniformly sprayed on the above respective plants.
(§8) After these plants were controlled in a glass house at an average temperature of 25° C. for 3 weeks, the herbicidal effects thereof were investigated.
(§9) The herbicidal effects were evaluated according to the evaluation method described in the above (1).

[21] = test system: Xanthium pensylvanicum; experiment: Foliar spread test for upland field; assay type: in vivo; parameters: key: 0 = normal development, 5 = all killed; settings: foliar spray, 500 ppm, 3 weeks, glass house 25° C.
Experimental: as §4, §6, §7, §8, §9

[22] = test system: corn; experiment: Soil treatment test for upland field; assay type: in vivo; parameters: key: 0 = normal development, 5 = all killed; settings: 500 g/ha, 3 weeks, glass house 25° C.
How it was run: (§10)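 Seeds were sown in alluvial soil in pots, and a wettable powder diluted in water with 0.05% surfactant was sprayed evenly on the soil surface at 500 g/ha. Plants were kept in a glass house at about 25° C for 3 weeks, then damage was scored 0–5 against untreated controls.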

[23] = test system: solgum; experiment: Soil treatment test for upland field; assay type: in vivo; parameters: key: 0 = normal development, 5 = all killed; settings: 500 g/ha, 3 weeks, glass house 25° C.
How it was run: as §10

[24] = test system: soybean; experiment: Soil treatment test for upland field; assay type: in vivo; parameters: key: 0 = normal development, 5 = all killed; settings: 500 g/ha, 3 weeks, glass house 25° C.
How it was run: as §10

[25] = test system: sugar beat; experiment: Soil treatment test for upland field; assay type: in vivo; parameters: key: 0 = normal development, 5 = all killed; settings: 500 g/ha, 3 weeks, glass house 25° C.
How it was run: as §10

[26] = test system: wheat; experiment: Soil treatment test for upland field; assay type: in vivo; parameters: key: 0 = normal development, 5 = all killed; settings: 500 g/ha, 3 weeks, glass house 25° C.
How it was run: as §10

[27] = test system: Large crabgrass; experiment: Soil treatment test for upland field; assay type: in vivo, Digitaria adscendens; parameters: key: 0 = normal development, 5 = all killed; settings: 500 g/ha, 3 weeks, glass house 25° C.
How it was run: as §10

[28] = test system: barnyard grass; experiment: Soil treatment test for upland field; assay type: in vivo, Eschinochloa crusgalli; parameters: key: 0 = normal development, 5 = all killed; settings: 500 g/ha, 3 weeks, glass house 25° C.
How it was run: as §10

[29] = test system: green foxtail; experiment: Soil treatment test for upland field; assay type: in vivo, Setaria viridis; parameters: key: 0 = normal development, 5 = all killed; settings: 500 g/ha, 3 weeks, glass house 25° C.
How it was run: as §10

[30] = test system: blackgrass; experiment: Soil treatment test for upland field; assay type: in vivo, Alopecurus aegualis; parameters: key: 0 = normal development, 5 = all killed; settings: 500 g/ha, 3 weeks, glass house 25° C.
How it was run: as §10

[31] = test system: annual bluegrass; experiment: Soil treatment test for upland field; assay type: in vivo, Poa annua; parameters: key: 0 = normal development, 5 = all killed; settings: 500 g/ha, 3 weeks, glass house 25° C.
How it was run: as §10

[32] = test system: common lambsquarters; experiment: Soil treatment test for upland field; assay type: in vivo, Chenopodium album; parameters: key: 0 = normal development, 5 = all killed; settings: 500 g/ha, 3 weeks, glass house 25° C.
How it was run: as §10

[33] = test system: livid amaranth; experiment: Soil treatment test for upland field; assay type: in vivo, Amaranthus lividus; parameters: key: 0 = normal development, 5 = all killed; settings: 500 g/ha, 3 weeks, glass house 25° C.
How it was run: as §10

[34] = test system: velvetleaf; experiment: Soil treatment test for upland field; assay type: in vivo, Abutilon theophrasti; parameters: key: 0 = normal development, 5 = all killed; settings: 500 g/ha, 3 weeks, glass house 25° C.
How it was run: as §10

[35] = test system: morning glory; experiment: Soil treatment test for upland field; assay type: in vivo, Ipomoea spps.; parameters: key: 0 = normal development, 5 = all killed; settings: 500 g/ha, 3 weeks, glass house 25° C.
How it was run: as §10

| Structure (SMILES) | Effects Barnyardgrass [1] | Effects Bulrush [2] | Effects Cyperus serotinus Rottb. [3] | Effects Corn [5] | Effects Sotton [6] | Effects Solgum [7] | Effects Soybean [8] | Effects Sugar beat [9] | Effects Wheat [10] | Effects Large crabgrass [11] | Effects Barnyardgrass [12] | Effects Green foxtail [13] | Effects Blackgrass [14] | Effects Annual bluegrass [15] | Effects Common lambsquarters [16] | Effects Livid amaranth [17] | Effects Velvetleaf [18] | Effects Morning glory [19] | further results |
| --- | --- | --- | --- | --- | --- | --- | --- | --- | --- | --- | --- | --- | --- | --- | --- | --- | --- | --- | --- |
| N#Cc1ccc2oc(-c3cccc(Oc4cccc(C(F)(F)F)c4)n3)nc2c1 [I-a-18] | 3 | 0 | 0 | 1 | 4 | 1 | 3 | 4 | 1 | 2 | 1 | 5 | 1 | 2 | 4 | 5 | 4 | 5 | Effects Arrowhead [4]: 0; Effects Sicklepod [20]: 5; Effects Common Cocklebur [21]: 4 |
| CCCC(=Cc1cccc(C(F)(F)F)c1)c1nc2cc(C#N)c(F)cc2o1 [I-c-139] | 4 | 3 | 1 | 2 | 4 | 2 | 5 | 4 | 2 | 4 | 3 | 4 | 4 | 4 | 5 | 5 | 4 | 5 | Effects Corn [22]: 2; Effects Solgum [23]: 3; Effects Soybean [24]: 5; Effects Sugar beat [25]: 5; Effects Wheat [26]: 2; Effects Large crabgrass [27]: 5; Effects Barnyardgrass [28]: 5; Effects Green foxtail [29]: 5; Effects Blackgrass [30]: 5; Effects Annual bluegrass [31]: 5; Effects Common lambsquarters [32]: 5; Effects Livid amaranth [33]: 5; Effects Velvetleaf [34]: 5; Effects Morning glory [35]: 5 |

Reference: patent US7402548B2, “Benzoxazole compounds, process for producing the same and herbicides” (Kyoyu Agri Co., Ltd., priority 2000, dated 2008)
